For this data set, the system named is primary mouse NPCs. As to the kind of experiment: TUNEL assay, mouse NPCs. The class given is cell-based. The settings on record: 40 μM. The procedure:
Primary neural progenitor cells (NPCs) were a gift from Dr. Harley Kornblum (University of California Los Angeles). The cells were collected from embryonic day 14 (E14) mouse brain according to procedures approved by the UCLA Chancellor's Committee for Animal Research. The following supplements were added to the Neurobasal media: 1:50 B27, 1:100 Pen-Strep, 2 mM 1-glutamine (all from GIBCO/BRL), 2 μg/ml heparin (Sigma), and 20 ng/ml FGF2 (PeproTech). Cells were incubated at 37° C. in the presence of 5% CO2. Additional FGF2 was added every third day, and cultures were passaged every 7 days. During each passage, spheres were enzymatically and mechanically dissociated with Accumax (Sigma).
Click-iT® Plus TUNEL Assay (Molecular Probes Life Technologies, Catalog #: C10617)
Primary mouse NPCs were passaged and counted as previously described. Cells without treatment were used as a negative control, DNaseI (Cat. no. 18068-015) was used to generate a positive control, and 10 μL of inhibitor solutions were used at varying concentrations. A 24-well plate was prepped with 12 mm circle glass coverslips in the wells. Coverslips were coated with poly-L-lysine followed by laminin prior to plating the cells. […]

The structures appear in SMILES notation.

With `CN(Cc1ccc(/C=C/C(=O)NO)cc1)CC12CC3CC(CC(C3)C1)C2` [Martinostat], the “toxicity by average cell population count of confocal images” value (5 positions) is recorded as “higher toxicity”. Moreover, the TUNEL positive cells entry (FIG. 11A) is reported as “perceived elevation”.

The record behind these values is patent US20220089616A1, “CARBORANE-BASED HISTONE DEACETYLASE (HDAC) INHIBITORS” (The Regents of the University of California, priority 2018, published 2022).
